Assay results from the supplement of paper PMC10307832.

How the values were obtained:
Assay in all cases: relative viability (nuclei count vs DMSO), 5 days (fraction); higher = more cells survive
NCI-H1793 = test system: NCI-H1793
How it was run: (§1)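 Relative viability was taken as the ratio of nuclei in treated wells to nuclei in vehicle wells. Lung cancer cell lines in 1536-well plates received compounds by pin tool one day after seeding, either one drug alone or a fixed anchor-drug dose plus five library-drug doses (not always all listed) in √10 steps. Nuclei were counted on 4× images after 5 days of treatment, and values are medians of duplicate plates.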

SW 900 = test system: SW 900
How it was run: as §1

NCI-H727 = test system: NCI-H727
How it was run: as §1

NCI-H23 = test system: NCI-H23
How it was run: as §1

NCI-H2347 = test system: NCI-H2347
How it was run: as §1

LC-2-ad = test system: LC-2-ad
How it was run: as §1

201T = test system: 201T
How it was run: as §1

SW 1573 = test system: SW 1573
How it was run: as §1

NCI-H1563 = test system: NCI-H1563
How it was run: as §1

LCLC-103H = test system: LCLC-103H
How it was run: as §1

PC-3 [JPC-3] = test system: PC-3 [JPC-3]
How it was run: as §1

NCI-H2228 = test system: NCI-H2228
How it was run: as §1

NCI-H596 = test system: NCI-H596
How it was run: as §1

LU99A = test system: LU99A
How it was run: as §1

COR-L23 = test system: COR-L23
How it was run: as §1

H3255 = test system: H3255
How it was run: as §1

NCI-H1650 = test system: NCI-H1650
How it was run: as §1

NCI-H460 = test system: NCI-H460
How it was run: as §1

PC-14 = test system: PC-14
How it was run: as §1

LCLC-97TM1 = test system: LCLC-97TM1
How it was run: as §1

A-427 = test system: A-427
How it was run: as §1

LK-2 = test system: LK-2
How it was run: as §1

Question: What does the source list for `O=c1cc(N2CCOCC2)oc2c(-c3cccc4c3sc3ccccc34)cccc12` + Cc1nc(Nc2ncc(C(=O)Nc3c(C)cccc3Cl)s2)cc(N2CCN(CCO)CC2)n1 [Dasatinib] (partner 0.075 µM)?
Answer: relative viability (NCI-H1793; first compound 0.01 µM): 0.372; relative viability (NCI-H1793; first compound 0.1 µM): 0.394; relative viability (NCI-H1793; first compound 0.3162 µM): 0.314; relative viability (NCI-H1793; first compound 1 µM): 0.405; relative viability (SW 900; first compound 0.01 µM): 0.476; relative viability (SW 900; first compound 0.03162 µM): 0.648; relative viability (SW 900; first compound 0.1 µM): 0.66; relative viability (SW 900; first compound 0.3162 µM): 0.539; relative viability (SW 900; first compound 1 µM): 0.507; relative viability (NCI-H727; first compound 0.01 µM): 0.466; relative viability (NCI-H727; first compound 0.03162 µM): 0.292; relative viability (NCI-H727; first compound 0.1 µM): 0.456; relative viability (NCI-H727; first compound 0.3162 µM): 0.367; relative viability (NCI-H727; first compound 1 µM): 0.38; relative viability (NCI-H23; first compound 0.01 µM): 0.828; relative viability (NCI-H23; first compound 0.03162 µM): 0.911; relative viability (NCI-H23; first compound 0.3162 µM): 0.815; relative viability (NCI-H23; first compound 1 µM): 0.857; relative viability (NCI-H2347; first compound 0.01 µM): 0.316; relative viability (NCI-H2347; first compound 0.03162 µM): 0.284; relative viability (NCI-H2347; first compound 0.1 µM): 0.265; relative viability (NCI-H2347; first compound 0.3162 µM): 0.315; relative viability (NCI-H2347; first compound 1 µM): 0.283; relative viability (LC-2-ad; first compound 0.01 µM): 0.536; relative viability (LC-2-ad; first compound 0.03162 µM): 0.688; relative viability (LC-2-ad; first compound 0.1 µM): 0.775; relative viability (LC-2-ad; first compound 0.3162 µM): 0.578; relative viability (LC-2-ad; first compound 1 µM): 0.527; relative viability (201T; first compound 0.01 µM): 0.592; relative viability (201T; first compound 0.03162 µM): 0.592; relative viability (201T; first compound 0.1 µM): 0.596; relative viability (201T; first compound 0.3162 µM): 0.505; relative viability (201T; first compound 1 µM): 0.596; relative viability (SW 1573; first compound 0.01 µM): 0.463; relative viability (SW 1573; first compound 0.03162 µM): 0.482; relative viability (SW 1573; first compound 0.1 µM): 0.535; relative viability (SW 1573; first compound 0.3162 µM): 0.546; relative viability (SW 1573; first compound 1 µM): 0.475; relative viability (NCI-H1563; first compound 0.01 µM): 0.445; relative viability (NCI-H1563; first compound 0.03162 µM): 0.451; relative viability (NCI-H1563; first compound 0.1 µM): 0.445; relative viability (NCI-H1563; first compound 0.3162 µM): 0.51; relative viability (NCI-H1563; first compound 1 µM): 0.412; relative viability (LCLC-103H; first compound 0.01 µM): 0.491; relative viability (LCLC-103H; first compound 0.03162 µM): 0.412; relative viability (LCLC-103H; first compound 0.1 µM): 0.539; relative viability (LCLC-103H; first compound 0.3162 µM): 0.449; relative viability (LCLC-103H; first compound 1 µM): 0.401; relative viability (PC-3 [JPC-3]; first compound 0.01 µM): 0.97; relative viability (PC-3 [JPC-3]; first compound 0.03162 µM): 0.974; relative viability (PC-3 [JPC-3]; first compound 0.1 µM): 1.02; relative viability (PC-3 [JPC-3]; first compound 0.3162 µM): 0.935; relative viability (PC-3 [JPC-3]; first compound 1 µM): 0.993; relative viability (NCI-H2228; first compound 0.01 µM): 0.538; relative viability (NCI-H2228; first compound 0.03162 µM): 0.416; relative viability (NCI-H2228; first compound 0.1 µM): 0.49; relative viability (NCI-H2228; first compound 0.3162 µM): 0.523; relative viability (NCI-H2228; first compound 1 µM): 0.543; relative viability (NCI-H596; first compound 0.01 µM): 0.711; relative viability (NCI-H596; first compound 0.03162 µM): 0.574; relative viability (NCI-H596; first compound 0.1 µM): 0.561; relative viability (NCI-H596; first compound 0.3162 µM): 0.558; relative viability (NCI-H596; first compound 1 µM): 0.648; relative viability (LU99A; first compound 0.01 µM): 0.552; relative viability (LU99A; first compound 0.03162 µM): 0.596; relative viability (LU99A; first compound 0.1 µM): 0.741; relative viability (LU99A; first compound 0.3162 µM): 0.535; relative viability (LU99A; first compound 1 µM): 0.421; relative viability (COR-L23; first compound 0.01 µM): 0.534; relative viability (COR-L23; first compound 0.03162 µM): 0.496; relative viability (COR-L23; first compound 0.1 µM): 0.566; relative viability (COR-L23; first compound 0.3162 µM): 0.446; relative viability (COR-L23; first compound 1 µM): 0.512; relative viability (H3255; first compound 0.01 µM): 0.348; relative viability (H3255; first compound 0.03162 µM): 0.338; relative viability (H3255; first compound 0.1 µM): 0.337; relative viability (H3255; first compound 0.3162 µM): 0.379; relative viability (H3255; first compound 1 µM): 0.345; relative viability (NCI-H1650; first compound 0.01 µM): 0.34; relative viability (NCI-H1650; first compound 0.03162 µM): 0.33; relative viability (NCI-H1650; first compound 0.1 µM): 0.315; relative viability (NCI-H1650; first compound 0.3162 µM): 0.287; relative viability (NCI-H1650; first compound 1 µM): 0.276; relative viability (NCI-H460; first compound 0.01 µM): 0.558; relative viability (NCI-H460; first compound 0.03162 µM): 0.54; relative viability (NCI-H460; first compound 0.1 µM): 0.516; relative viability (NCI-H460; first compound 0.3162 µM): 0.512; relative viability (NCI-H460; first compound 1 µM): 0.452; relative viability (PC-14; first compound 0.01 µM): 0.237; relative viability (PC-14; first compound 0.03162 µM): 0.267; relative viability (PC-14; first compound 0.1 µM): 0.276; relative viability (PC-14; first compound 0.3162 µM): 0.257; relative viability (PC-14; first compound 1 µM): 0.237; relative viability (LCLC-97TM1; first compound 0.01 µM): 0.904; relative viability (LCLC-97TM1; first compound 0.03162 µM): 0.86; relative viability (LCLC-97TM1; first compound 0.1 µM): 0.788; relative viability (LCLC-97TM1; first compound 0.3162 µM): 0.917; relative viability (LCLC-97TM1; first compound 1 µM): 0.898; relative viability (A-427; first compound 0.01 µM): 0.728; relative viability (A-427; first compound 0.03162 µM): 0.766; relative viability (A-427; first compound 0.1 µM): 0.677; relative viability (A-427; first compound 0.3162 µM): 0.636; relative viability (A-427; first compound 1 µM): 0.792; relative viability (LK-2; first compound 0.01 µM): 0.329; relative viability (LK-2; first compound 0.03162 µM): 0.289; relative viability (LK-2; first compound 0.1 µM): 0.338; relative viability (LK-2; first compound 0.3162 µM): 0.339; relative viability (LK-2; first compound 1 µM): 0.279
